# Experimental data reported in patent US11149028B2, “Methods for treating melanoma using small molecules” (NOVA SOUTHEASTERN UNIVERSITY, priority 2016, dated 2021).
# Entries after “also recorded” stand apart in the source; their conditions may differ. Like-named read-outs stand apart in the source and are kept apart here.
# Columns and labels:
# [1] = system: M14 cells; test: CellTiter-Glo viability assay, M14 melanoma cells (library screening, individual compounds, time course); type: cell-based, human; settings: for IC50: Homo sapiens, M14
# Method: Mixture libraries were solubilized in 3% DMSO/H2O and added to polypropylene 384 well plates (Greiner cat #781280). 1,250 CHO-K1, A549, or M14 cells were plated in 384-well plates in 5 μL of serum-free media (F12 for CHO-K1 and A549, DMEM for M14). Test compounds and gefitinib (pharmacological assay control) were prepared as 10-point, 1:3 serial dilutions starting at 300 then added to the cells (5 μL per well) using the Biomek NX^P. Plates were incubated for 72 h at 37° C., 5% CO2 and 95% RH. After incubation, 5 μL of CellTiter-Glo® (Promega cat #: G7570) were added to each well, and incubated for 15 min at room temperature. Luminescence was recorded using a Biotek Synergy H4 multimode microplate reader. Viability was expressed as a percentage relative to wells containing media only (0%) and wells containing cells treated with 1% DMSO only (100%). Three parameters were calculated on a per-plate basis: (a) the signal-to-background ratio (SB); (b) the coefficient for variation [CV; CV=(standard deviation/mean)×100)] for all compound test wells; and (c) the Z′-factor (18). The IC50 value of the pharmacological control (gefitinib, LC Laboratories #G-4408) was also calculated to ascertain the assay robustness. Time course viability assay was performed as described for library screening with luminescence measurements performed at 4, 24, 48, and 72 h.
# [2] = system: B16/F10 murine metastatic melanoma; test: Hexosaminidase viability assay, B16/F10; type: cell-based; settings: Mus musculus; for IC50: p53 mutation
# Method: Hexosaminidase assay was used to study the effects of 2155-14 and 2155-18 on cell viability or cell proliferation of both B16/F-10 and SKMEL-28 cells
# (Landegren, U. Measurement of cell numbers by means of the endogenous enzyme hexosaminidase. Applications to detection of lymphokines and cell surface antigens. J Immunol Methods 1984, 67, 379-388). In brief, cells were plated in 96 well plates, grown overnight and treated the next day with increasing concentrations of compounds (0-50 μM) for 48 h. After 48 h of treatment, media was discarded and cells were washed with PBS to remove residual media from wells. Hexosaminidase substrate (75 μL) (Sigma Aldrich; cat #N9376) was added to each well, incubated at 37° C. for 30 min followed by addition of 112.5 μL of developer into each well. Final absorbance was measured at λ=405 nm. Cell growth was calculated as percent viability=[([…])×100], where A and B were the absorbance of treated and control cells, respectively.
# [3] = system: MDA-MB-231 cell line; test: Viability of MDA-MB-231 breast cancer cells; type: cell-based
# [4] = target: HDAC1 (Homo sapiens, UniProt Q13547); test: HDAC inhibition testing; type: biochemical; settings: up to 100 μM
# Chain of HDAC1 (Q13547 whole entry, species assumed): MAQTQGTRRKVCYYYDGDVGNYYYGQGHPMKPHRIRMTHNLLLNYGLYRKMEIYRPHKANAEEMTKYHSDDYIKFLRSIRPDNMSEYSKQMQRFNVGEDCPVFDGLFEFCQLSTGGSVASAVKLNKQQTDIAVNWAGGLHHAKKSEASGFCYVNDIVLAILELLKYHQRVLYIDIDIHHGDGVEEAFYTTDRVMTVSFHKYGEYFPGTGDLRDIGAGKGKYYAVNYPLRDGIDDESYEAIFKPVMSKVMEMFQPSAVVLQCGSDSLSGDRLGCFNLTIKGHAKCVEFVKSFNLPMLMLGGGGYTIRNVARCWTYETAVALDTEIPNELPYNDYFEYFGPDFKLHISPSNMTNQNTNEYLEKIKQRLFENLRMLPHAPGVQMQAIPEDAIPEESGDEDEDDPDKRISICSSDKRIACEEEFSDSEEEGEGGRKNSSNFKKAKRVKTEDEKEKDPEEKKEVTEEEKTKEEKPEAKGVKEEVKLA
# [5] = target: HDAC2 (Homo sapiens, UniProt Q92769); test: HDAC inhibition testing; type: biochemical; settings: up to 100 μM
# Chain of HDAC2 (Q92769 whole entry): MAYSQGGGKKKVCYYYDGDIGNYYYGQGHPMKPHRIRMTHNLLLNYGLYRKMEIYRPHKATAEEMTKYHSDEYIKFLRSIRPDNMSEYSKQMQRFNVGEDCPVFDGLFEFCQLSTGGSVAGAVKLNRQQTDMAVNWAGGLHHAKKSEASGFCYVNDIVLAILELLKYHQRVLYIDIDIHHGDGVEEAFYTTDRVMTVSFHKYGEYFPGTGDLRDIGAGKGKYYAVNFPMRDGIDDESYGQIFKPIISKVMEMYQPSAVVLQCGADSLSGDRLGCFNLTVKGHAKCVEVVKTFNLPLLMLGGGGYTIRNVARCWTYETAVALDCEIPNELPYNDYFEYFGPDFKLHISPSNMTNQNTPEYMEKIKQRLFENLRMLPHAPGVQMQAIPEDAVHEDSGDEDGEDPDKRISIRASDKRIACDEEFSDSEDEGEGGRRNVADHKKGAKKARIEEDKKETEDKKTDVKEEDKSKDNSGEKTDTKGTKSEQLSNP
# [6] = system: WM266-4 cells; test: CellTiter-Glo cell viability assay, WM266-4 (including rescue assays); type: cell-based, human; settings: for viability of WM266-4 cells: 24 h after addition
# Method: Cells were plated in 384-well plates in 8 μL of media. Test compounds and dabrafenib (pharmacological assay control) were prepared as 10-point, 1:3 serial dilutions starting at 300 μM, then added to the cells (4 μL per well) using the Biomek Plates were incubated for 72 h at 37° C., 5% CO2 and 95% relative humidity. After incubation, 4 μL of CellTiter-Glo® (Promega cat #: G7570) were added to each well, and incubated for 15 min at room temperature. Luminescence was recorded using a Biotek Synergy H4 multimode microplate reader. Viability was expressed as a percentage relative to wells containing media only (0%) and wells containing cells treated with DMSO only (100%). Three parameters were calculated on a per-plate basis: (a) the signal-to-background ratio (SB); (b) the coefficient for variation [CV; CV=(standard deviation/mean)×100)] for all compound test wells; and (c) the Z′-factor (18). The IC50 value of the pharmacological control (dabrafenib, LC Laboratories #G-4408) was also calculated to ascertain the assay robustness. In case of viability rescue assays, cells were pre-treated with caspase, calpain, and autophagy inhibitors for 1-3 h before addition of test compounds. Time course viability assay was done with luminescence measurements performed at 4, 24, 48, and 72 h.
# [7] = system: caspase 3/7 in WM266-4 cells; test: Caspase 3/7 activity assay; type: cell-based, human; settings: 0 and 4 h
# Method: (§1) WM266-4 and M14 cells were plated in 384-well plates in 5 μL of complete media (EMEM and RPMI-1640, respectively). 5 μL of 200 μM 2155-14 and 2155-18 were added to the cells. Plates were incubated at 37° C., 5% CO2 and 95% relative humidity for various lengths of time. After incubation, 5 μL of caspase 3/7, caspase 8, and caspase 9 Glo® reagent (Promega cat #: G7570) were added to each well, and incubated for 15 min at room temperature. Luminescence was recorded using a Biotek Synergy H4 multimode microplate reader.
# [8] = system: caspase 8 in WM266-4 cells; test: Caspase 8 activity assay; type: cell-based, human; settings: 0 and 4 h
# Method: as §1
# [9] = system: WM266-4 cells; test: Cell staining for autophagy (autophagosome dye); type: cell-based, human; settings: for autophagy staining: 100 μM; for autophagy staining / morphology of unstained cells: 4 and 24 h; for morphology of unstained cells: bright field
# Method: WM266-4 cells were seeded at 10,000 cells/well in 0.1 mL of E-MEM medium supplemented with 10% FBS and 1% penicillin/streptomycin in 96 well plates (Greiner Bio-One CellStar cat #655180) and allowed to adhere overnight. After overnight incubation 100 μM 2155-14, 2155-18, 50 nM hnRNPH2 siRNA or 25 μM 2476-67.2 were added and incubated for various length of time. Cells were rinsed with warm PBS and stained with CYTO-ID® 1.0 Autophagy reagent (Enzo ENZ-51031-0050) and counterstained with DAPI. Cells were imaged using Cytation 5 imager (Biotek Inc, Winooski, Vt.) using GFP and DAPI filter sets. For % autophagic cells calculations cell counts were conducted using DAPI-stained nuclei and Object Sum Area value was obtained from at least 1,000 cells/well using DAPI channels. To obtain number of cells undergoing autophagy the cell count was conducted using GFP channel. Both GFP and DAPI cell counts were conducted using optimized algorithm in automatic mode. 8 replicate wells were used. % autophagic cells was calculated using Equation 1:% autophagic cells=100%*(number of cells, GFP channenumber of cells, DAPI channel)
# To calculate staining intensity, the Object Sum Area value from GFP channel was obtained and divided by number of cells using DAPI channel. Both GFP and DAPI cell counts were conducted using optimized algorithm in automatic mode. 3 replicate wells were used.
"IC50 ([1]; individual compounds, read-out: IC50 for M14 cells) [µM]",IC50 [2] [µM],HDAC1 inhibition [4],HDAC2 inhibition [5],IC50 ([1]; read-out: IC50 for M14) [µM],SMILES,inhibition of M14 cell viability at highest concentration ([1]; 100 μM),"cytotoxicity at 10 µM ([2]; starting at 10 μM, read-out: inhibition of B16/F10 viability) [%]",selectivity against MDA-MB-231 cell line [3],"inhibition of WM266-4 viability ([6]; 100 μM, 72 h)","viability after pre-incubation with caspase inhibitors ([6]; 24 h, 10 μM Z-IETD-FMK and Z-VAD-FMK)",viability of WM266-4 cells [6],viability of WM266-4 cells with caspase inhibitor pre-treatment ([6]; 48 h of exposure) [%],IC50 ([6]; 72 h) [µM],"IC50 ([6]; 72 h, listed as 2529-1) [µM]",caspase 3/7 activity vs untreated control [7],caspase 8 signal vs untreated control [8],autophagy staining [9],morphology of unstained cells [9],"cells undergoing autophagy ([9]; quantitation of representative image, FIG. 18D) [%]",activity towards M14 cells ([1]; individual compounds)
3.6 ± 0.3,2.7 ± 0.2,lack of HDAC inhibition,lack of HDAC inhibition,,"O=C1NC[C@H](Cc2ccccc2)N(C[C@@H]2CCCN2C[C@@H](CC2CCCCC2)N2C[C@H](Cc3ccc(O)cc3)N(CCc3ccccc3)C(=O)C2=O)C1=O [Compound 2155-14, (S)-1((R)-1((S)-2-(((S)-6-benzyl-2,3-dioxopiperazin-1-yl)methyl)pyrrolidin-1-yl)-3-cyclohexylpropan-2-yl)-5-(4-hydroxybenzyl)-4-phenethylpiperazine-2,3-dione]",not able to fully inhibit,~100,selective,completely inhibited viability,almost completely restored,impaired,~25,4 ± 0.5,1.5 ± 0.2,not statistically different from untreated control,significantly different from untreated control cells,stained positive for autophagy as early as 4 h after compound addition; also recorded: At 24 h the intensity of autophagy staining increased; also recorded: stain positive for autophagy at 4 h,exhibited traits of apoptosis; also recorded: extensive cell death,57,
,1.15,lack of HDAC inhibition,lack of HDAC inhibition,0.745 ± 0.06,"O=C1NC[C@H](Cc2ccccc2)N(C[C@@H]2CCCN2C[C@H](Cc2ccccc2)N2C[C@H](Cc3ccc(O)cc3)N(CCC34CC5CC(CC(C5)C3)C4)C(=O)C2=O)C1=O [Compound 2155-18, (S)-4-(2-(adamantan-1yl)ethyl)-1-((S)-1-((S)-2-(((S)-6-benzyl-2,3-dioxopiperazin-1-yl)methyl)pyrrolidin-1-yl)-3-phenylpropan-2-yl)-5-(4-hydroxybenzyl)piperazine-2,3-dione]",,,selective,,,impaired,,,,not statistically different from untreated control,significantly different from untreated control cells,did not stain positive for autophagy,exhibited traits of apoptosis; also recorded: less pronounced than 2155-14,,improved activity
